In PMC6668441, “Comparative Study of Subcutaneous and Orthotopic Mouse Models of Prostate Cancer: Vascular Perfusion, Vasculature Density, Hypoxic Burden and BB2r-Targeting Efficacy” (Scientific Reports, 2019):

What was measured:
[1] = test system: subcutaneous PC-3 xenografts; assay: Biodistribution, perfusion tracer, subcutaneous PC-3 xenograft model; type: in vivo; details: 5 min p.i., mean ± SD
Procedure: (§1) For the subcutaneous model, 5-week old female SCID mice were inoculated in the flanks with 5 × 10^6 PC-3 cells (American Type Culture Collection (ATCC), VA) in Matrigel®. The tumor size was monitored by caliper. For the generation of the orthotopic model, the PC-3-Luc cells were selected by 0.5 µg/mL puromycin twice before inoculation. The male 6-weeks SCID mice were anesthetized, the muscles of the abdomen area were cut after retracting the skin, and the prostate gland exposed. 50 μL of PC-3-Luc cell suspension at 0.5 × 10^6/mL in Matrigel® was injected into a dorsal prostatic lobe. The wound was closed in two layers and the skin was clipped. Animals were given analgesic drugs for 3 days and the tumors were monitored by an IVIS optical imaging system.
(§2) The mice were injected, monitored and dissected in the lab with the temperature of 23 °C and 17% relative humidity. All animals were awake until sacrifice. The body weight, tumor volume and tumor luminescence of the mice were recorded every three days. At four-to-seven weeks post-xenograft implantation, the mice were divided into three groups by tumor volume: <300, 300–700 and >700 mm^3 in both animal models. […] Each mouse (average weight: 20 g for female mice and 25 g for male mice) was treated with pimonidazole solution (80 mg/kg in PBS) via intraperitoneal injection. […] After an additional 1 h, the mice were injected intravenously with a PBS solution containing 10 µCi (370 kBq) of [^99mTc]NaTcO4 and 15 mg/kg Hoechst 33342. The animals were sacrificed 5 minutes later, and their tissues collected. The excised tissues were weighed, the radioactivity for each tissue was measured by γ-counter and the percentage injected dose per gram (%ID/g) was calculated for each tissue. […]
The normal PC-3 cells and PC-3-Luc were cultured in our laboratory, as per ATCC protocols, in Ham’s F-12K medium
containing 10% FBS, 2.5 mM L-glutamine, 15 mM HEPES and 0.5 mM sodium pyruvate. Cells were incubated at 37 °C
(§3) All animal experiments were performed in accordance with the NIH animal use guideline and protocol approved by the […]

[2] = test system: orthotopic PC-3 xenografts; assay: Biodistribution, perfusion tracer, orthotopic PC-3 xenograft model; type: in vivo; details: for blood uptake / bone uptake / brain uptake / excretion (urine and fecal material) / heart uptake / kidney uptake / large intestine uptake / liver uptake / lung uptake / muscle uptake / pancreas uptake / small intestine uptake / spleen uptake / stomach uptake / tumor uptake (perfusion): orthotopic model, 10 µCi i.v., 5 min p.i., mean ± SD
Procedure: as §1, §2
(§4) Establishment of Stably Transfected PC-3-Luc Cells
To generate the PC-3-Luc cells, we utilized pre-made lentivirus particles encoding luciferase and GFP (EF1a-Luciferase (firefly)-2A-GFP (Puro), AMSBIO) for transfection. Briefly, normal PC-3 cells were seeded in a 24-well plate using 0.5 mL of medium containing 0.5 × 10^5 cells/mL and incubated overnight. The medium was removed and replaced with 0.5 mL of fresh medium pre-mixed with 2.5 ȝL TransduxTM. To each well was added 2 ȝL of the lentivirus particle solution and swirled to mix. The plate was returned to the incubator and cultured for 3 days. Once the cells grew to confluence, they were harvested and transferred to larger plates (from 6-well plates to 60 mm dishes). 1.5 mL of suspended cells in PBS at a concentration of 5 × 10^6/mL was sorted by the FACS method to give the GFP positive (PC-3-Luc) cells that were returned to culture for in vitro and in vivo studies.
The normal PC-3 cells and PC-3-Luc were cultured in our laboratory, as per ATCC protocols, in Ham’s F-12K medium containing 10% FBS, 2.5 mM L-glutamine, 15 mM HEPES and 0.5 mM sodium pyruvate. Cells were incubated at 37 °C […]
as §3

[3] = biological target: T1, BB2r (gastrin-releasing peptide receptor) (Homo sapiens, UniProt P30550); assay: In vitro competitive cell-binding, displacement of [125I-Tyr4]-Bombesin on PC-3 cells; details: PC-3 cells (~3×10^4), 4 °C, 40 min, RPMI 1640 pH 7.4, mean ± SEM (n = 6)
T1 construct: host or cells: PC-3 human prostate cancer cells (whole cells in suspension)
T1 sequence (P30550 whole entry): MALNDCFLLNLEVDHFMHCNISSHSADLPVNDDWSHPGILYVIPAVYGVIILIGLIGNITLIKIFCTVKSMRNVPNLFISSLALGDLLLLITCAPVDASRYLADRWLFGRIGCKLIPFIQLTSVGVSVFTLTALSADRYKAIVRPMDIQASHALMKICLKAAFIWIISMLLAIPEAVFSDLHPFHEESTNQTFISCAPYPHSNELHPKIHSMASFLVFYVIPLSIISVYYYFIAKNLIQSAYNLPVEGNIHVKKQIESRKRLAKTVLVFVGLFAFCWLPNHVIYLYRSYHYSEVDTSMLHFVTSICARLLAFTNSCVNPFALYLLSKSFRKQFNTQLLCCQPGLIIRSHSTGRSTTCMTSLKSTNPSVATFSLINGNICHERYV
Procedure: Data were presented as Mean ± SD/SEM as noted. […] In vitro stability studies of the radioconjugate in various buffers were analyzed by the two-tailed Student’s t-test. For comparison between the two models, analysis of the biodistribution studies, hypoxic burden and blood vessel density of tumor was carried out by a two-tailed Student’s t-test. Comparisons of the means of the BB2r-uptake, blood perfusion, hypoxic burden and blood vessel density of the tumors among the three tumor volume groups for each animal model were analyzed by one-way ANOVA. If the overall p-value was statistically significant, pairwise comparisons were adjusted using Tukey’s method. A p-value < 0.05 was considered statistically significant.
In Vitro Competitive Cell-Binding Studies […]
binding assays using PC-3 cells.
as §4
(firefly)-2A-GFP (Puro), AMSBIO) for transfection.
The medium was removed and replaced with 0.5 […]
and swirled to mix. […] Once the cells grew to confluence, they […]
1.5 mL of suspended cells in PBS at […]
to culture for in vitro and in vivo studies.
Cells were incubated at 37 °C
Development of PC-3 Xenograft SCID Mice
The tumor size was monitored during the growth by caliper measurement.
Development of PC-3 Orthotopic SCID mice […]
clips. […] The animals were monitored continuously for the following weeks. […]

[4] = tumor volume 300-700 mm^3, 10 µCi i.v.
[5] = tumor volume <300 mm^3, 10 µCi i.v.
[6] = tumor volume >700 mm^3, 10 µCi i.v.

Question: Which results are given for `[Na+].[O]=[Tc](=[O])(=[O])[O-]` [[^99mTc]TcO4^−, sodium pertechnetate]?
Answer: blood uptake [1, 4]: 0.88 ± 0.34 %ID/g; bone uptake [1, 4]: 0.16 ± 0.06 %ID/g; brain uptake [1, 4]: 0.03 ± 0.02 %ID/g; excretion (urine and fecal material) [1, 4]: 85.78 ± 9.65 %ID; heart uptake [1, 4]: 0.22 ± 0.11 %ID/g; kidney uptake [1, 4]: 0.53 ± 0.19 %ID/g; large intestine uptake [1, 4]: 0.43 ± 0.47 %ID/g; liver uptake [1, 4]: 0.41 ± 0.19 %ID/g; lung uptake [1, 4]: 0.49 ± 0.21 %ID/g; muscle uptake [1, 4]: 0.11 ± 0.04 %ID/g; pancreas uptake [1, 4]: 3.30 ± 2.30 %ID/g; small intestine uptake [1, 4]: 0.61 ± 0.43 %ID/g; spleen uptake [1, 4]: 0.87 ± 0.74 %ID/g; stomach uptake [1, 4]: 2.41 ± 1.25 %ID/g; tumor uptake (perfusion) [1, 4]: 0.68 ± 0.49 %ID/g; blood uptake [1, 5]: 1.01 ± 0.06 %ID/g; bone uptake [1, 5]: 0.34 ± 0.27 %ID/g; brain uptake [1, 5]: 0.06 ± 0.04 %ID/g; excretion (urine and fecal material) [1, 5]: 83.64 ± 9.63 %ID; heart uptake [1, 5]: 0.40 ± 0.24 %ID/g; kidney uptake [1, 5]: 0.66 ± 0.33 %ID/g; large intestine uptake [1, 5]: 0.44 ± 0.35 %ID/g; liver uptake [1, 5]: 0.67 ± 0.43 %ID/g; lung uptake [1, 5]: 0.74 ± 0.27 %ID/g; muscle uptake [1, 5]: 0.19 ± 0.11 %ID/g; pancreas uptake [1, 5]: 2.26 ± 1.95 %ID/g; small intestine uptake [1, 5]: 0.52 ± 0.38 %ID/g; spleen uptake [1, 5]: 1.35 ± 1.21 %ID/g; stomach uptake [1, 5]: 2.26 ± 1.06 %ID/g; tumor uptake (perfusion) [1, 5]: 0.51 ± 0.31 %ID/g; blood uptake [1, 6]: 2.61 ± 1.54 %ID/g; bone uptake [1, 6]: 0.34 ± 0.31 %ID/g; brain uptake [1, 6]: 0.06 ± 0.05 %ID/g; excretion (urine and fecal material) [1, 6]: 82.76 ± 12.78 %ID; heart uptake [1, 6]: 0.43 ± 0.38 %ID/g; kidney uptake [1, 6]: 1.11 ± 0.92 %ID/g; large intestine uptake [1, 6]: 0.53 ± 0.53 %ID/g; liver uptake [1, 6]: 0.85 ± 0.77 %ID/g; lung uptake [1, 6]: 1.24 ± 1.00 %ID/g; muscle uptake [1, 6]: 0.21 ± 0.20 %ID/g; pancreas uptake [1, 6]: 6.22 ± 6.53 %ID/g; small intestine uptake [1, 6]: 0.53 ± 0.43 %ID/g; spleen uptake [1, 6]: 0.43 ± 0.51 %ID/g; stomach uptake [1, 6]: 3.03 ± 2.52 %ID/g; tumor uptake (perfusion) [1, 6]: 0.86 ± 0.37 %ID/g; tumor uptake (perfusion) ([1]; tumor volume >700 mm^3, 10 µCi i.v., listed as [99mTc]TcO4-): 0.86 ± 0.35 %ID/g; stomach uptake, orthotopic versus subcutaneous model ([2]; Table S1): approximately 8 fold; tumor perfusion, orthotopic versus subcutaneous model ([2]; across tumor volume groups): 3.7–4.3 fold; blood uptake ([2]; tumor volume 300-700 mm^3): 3.51 ± 1.28 %ID/g; bone uptake ([2]; tumor volume 300-700 mm^3): 1.27 ± 0.68 %ID/g; brain uptake ([2]; tumor volume 300-700 mm^3): 0.18 ± 0.18 %ID/g; excretion (urine and fecal material) ([2]; tumor volume 300-700 mm^3): 37.55 ± 14.08 %ID; heart uptake ([2]; tumor volume 300-700 mm^3): 1.20 ± 0.63 %ID/g; kidney uptake ([2]; tumor volume 300-700 mm^3): 2.25 ± 2.25 %ID/g; large intestine uptake ([2]; tumor volume 300-700 mm^3): 2.24 ± 0.57 %ID/g; liver uptake ([2]; tumor volume 300-700 mm^3): 2.92 ± 0.95 %ID/g; lung uptake ([2]; tumor volume 300-700 mm^3): 2.78 ± 1.27 %ID/g; muscle uptake ([2]; tumor volume 300-700 mm^3): 0.59 ± 0.18 %ID/g; pancreas uptake ([2]; tumor volume 300-700 mm^3): 5.17 ± 5.32 %ID/g; small intestine uptake ([2]; tumor volume 300-700 mm^3): 1.36 ± 0.45 %ID/g; spleen uptake ([2]; tumor volume 300-700 mm^3): 1.70 ± 1.20 %ID/g; stomach uptake ([2]; tumor volume 300-700 mm^3): 19.15 ± 6.40 %ID/g; tumor uptake (perfusion) ([2]; tumor volume 300-700 mm^3): 2.94 ± 0.76 %ID/g; blood uptake ([2]; tumor volume <300 mm^3): 3.13 ± 1.02 %ID/g; bone uptake ([2]; tumor volume <300 mm^3): 1.10 ± 0.73 %ID/g; brain uptake ([2]; tumor volume <300 mm^3): 0.14 ± 0.04 %ID/g; excretion (urine and fecal material) ([2]; tumor volume <300 mm^3): 39.51 ± 22.40 %ID; heart uptake ([2]; tumor volume <300 mm^3): 1.29 ± 0.61 %ID/g; kidney uptake ([2]; tumor volume <300 mm^3): 1.85 ± 0.91 %ID/g; large intestine uptake ([2]; tumor volume <300 mm^3): 1.52 ± 0.36 %ID/g; liver uptake ([2]; tumor volume <300 mm^3): 2.51 ± 0.73 %ID/g; lung uptake ([2]; tumor volume <300 mm^3): 2.86 ± 1.06 %ID/g; muscle uptake ([2]; tumor volume <300 mm^3): 0.47 ± 0.20 %ID/g; pancreas uptake ([2]; tumor volume <300 mm^3): 4.94 ± 4.84 %ID/g; small intestine uptake ([2]; tumor volume <300 mm^3): 1.31 ± 0.31 %ID/g; spleen uptake ([2]; tumor volume <300 mm^3): 2.84 ± 1.87 %ID/g; stomach uptake ([2]; tumor volume <300 mm^3): 16.33 ± 4.08 %ID/g; tumor uptake (perfusion) ([2]; tumor volume <300 mm^3): 2.23 ± 1.09 %ID/g; blood uptake ([2]; tumor volume >700 mm^3): 3.96 ± 0.90 %ID/g; bone uptake ([2]; tumor volume >700 mm^3): 0.85 ± 0.49 %ID/g; brain uptake ([2]; tumor volume >700 mm^3): 0.16 ± 0.07 %ID/g; excretion (urine and fecal material) ([2]; tumor volume >700 mm^3): 46.43 ± 13.26 %ID; heart uptake ([2]; tumor volume >700 mm^3): 1.79 ± 0.87 %ID/g; kidney uptake ([2]; tumor volume >700 mm^3): 1.45 ± 0.64 %ID/g; large intestine uptake ([2]; tumor volume >700 mm^3): 2.14 ± 0.55 %ID/g; liver uptake ([2]; tumor volume >700 mm^3): 3.02 ± 0.77 %ID/g; lung uptake ([2]; tumor volume >700 mm^3): 3.34 ± 0.84 %ID/g; muscle uptake ([2]; tumor volume >700 mm^3): 0.63 ± 0.24 %ID/g; pancreas uptake ([2]; tumor volume >700 mm^3): 4.03 ± 3.24 %ID/g; small intestine uptake ([2]; tumor volume >700 mm^3): 1.32 ± 0.78 %ID/g; spleen uptake ([2]; tumor volume >700 mm^3): 1.80 ± 1.37 %ID/g; stomach uptake ([2]; tumor volume >700 mm^3): 15.44 ± 3.98 %ID/g; tumor uptake (perfusion) ([2]; tumor volume >700 mm^3): 3.19 ± 0.66 %ID/g; average tumor uptake of perfusion tracer, orthotopic versus subcutaneous model ([2]; tumor volume 300–700 mm^3, p = 0.0001): 4.3 fold; average tumor uptake of perfusion tracer, orthotopic versus subcutaneous model ([2]; tumor volume <300 mm^3, p = 0.0008): 4.1 fold; average tumor uptake of perfusion tracer, orthotopic versus subcutaneous model ([2]; tumor volume >700 mm^3, p = 0.0001): 3.7 fold

Question: With `CSCC[C@H](NC(=O)[C@H](CC(C)C)NC(=O)[C@H](Cc1c[nH]cn1)NC(=O)CNC(=O)[C@@H](NC(=O)[C@H](C)NC(=O)[C@H](Cc1c[nH]c2ccccc12)NC(=O)[C@H](CCC(N)=O)NC(=O)CCOCCOCCOCCOCCNC(=O)[C@@H](CO)NC(=O)[C@@H](CO)NC(=O)[C@@H](CO)NC(=O)[C@@H](CO)NC(=O)[C@@H](CO)NC(=O)CN1CCN(CC(=O)O)CCN(CC(=O)O)CCN(CC(=O)O)CC1)C(C)C)C(N)=O` [DOTA-SP714, DOTA-(D)S-(D)S-(D)S-(D)S-(D)S-PEG3–BBN(7–14)NH2] as the molecule, how does the IC50 [3] read?
Answer: The IC50 was 9.8 ± 1.7 nM.
